The values that follow come from patent EP0264138B1, “Novel compound DC-102 and process for production thereof” (KYOWA HAKKO KOGYO CO., LTD., priority 1986, dated 1988).

In the assay the test system is lymphocytic leukemia P388. Kind of assay: Therapeutical effect against lymphocytic leukemia P388. In kind it is in vivo, male CDF₁ mice. To be noted: dose 6 mg/kg intraperitoneally. The protocol:
Five male CDF₁ mice each having a weight of about 22 g were used for each group as test animals, and 1 x 10⁶ cells of lymphocytic leukemia P388 were implanted intraperitoneally in the test animals. 24 hours after implantation, 0.2 mℓ of a phosphate buffer saline (hereinafter referred to as PBS) containing DC-102 was intraperitoneally administered. For comparison, 0.2 mℓ of PBS solution containing mitomycin C was intraperitoneally administered 24 hours after implantation of the tumor cells. The mean survival time (MST) after implantation and increased life span (ILS) represented by T/C (T: MST for test groups; C: MST for control group) are shown in Table 3.

Compound `CO[C@@]12[C@H](COC(N)=O)C3=C(C(=O)C(C)=C(N)C3=O)N1C[C@@H]1N[C@@H]12` [Mitomycin C, mitomycin C] displayed an MST (24 hours after implantation of 1 x 10⁶ P388 cells) of 17.2 days. Also, the “ILS (T/C)” value (T: MST for test groups, C: MST for control group) came to 166.
